# Numbered stars: 1 amine (or outer) side, 2 acyl side, 3 side chain; on linkers, the order of the positions; unused ones are H or OH. Square brackets hold non-standard residues; d marks the D form. Side chains are listed from the residue outwards. Peptide text beside a SMILES is read from it. * marks the point of attachment. C18 diacid = O=C(O)CCCCCCCCCCCCCCCCC(=O)*; γGlu = O=C(O)[C@H](CCC(=O)[*:2])N[*:1]; Ac4c = NC1(C(=O)O)CCC1; Aib = CC(C)(N)C(=O)O
# Target: T1, human GLP-1 receptor (Homo sapiens, UniProt P43220)
# T1 construct: expressed in transfected cells; host or cells: BHK cells (parent BHKTS13), clone FCW467-12A/KZ10-1, with CRE luciferase
# Assay: GLP-1 receptor potency, CRE luciferase reporter gene assay in BHK cells
# Assay type: cell-based
# Conditions: BHK cells expressing human GLP-1 receptor, read-out: EC50 GLP-1R
# Method in brief: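 Potency as cAMP-driven firefly luciferase signal after 3 h, 37° C exposure to 10-fold dilutions (final 1×10EE-13–1×10EE-6 M). Stable hGLP-1R/CRE-luc BHK clone, 5×10EE3 cells/well, medium containing 2% ovalbumin and 0.2% Pluronic F-68; EC50 (pM) from variable-slope non-linear regression.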
# T1 sequence (P43220 24-463): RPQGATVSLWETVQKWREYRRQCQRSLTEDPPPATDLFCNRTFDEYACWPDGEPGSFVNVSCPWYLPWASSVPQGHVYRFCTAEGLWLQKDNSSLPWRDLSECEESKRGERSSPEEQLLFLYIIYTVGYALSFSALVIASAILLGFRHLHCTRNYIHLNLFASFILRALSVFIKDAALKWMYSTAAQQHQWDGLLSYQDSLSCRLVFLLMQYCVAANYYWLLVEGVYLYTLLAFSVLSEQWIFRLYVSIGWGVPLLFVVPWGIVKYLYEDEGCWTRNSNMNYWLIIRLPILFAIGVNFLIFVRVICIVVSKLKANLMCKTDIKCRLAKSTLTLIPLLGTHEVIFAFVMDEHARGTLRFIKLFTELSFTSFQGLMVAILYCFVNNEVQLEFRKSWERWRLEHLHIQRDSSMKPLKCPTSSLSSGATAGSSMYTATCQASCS
row,Structure (SMILES),EC50
1,"CC(C)C[C@H](NC(=O)[C@H](Cc1ccc(O)cc1)NC(=O)[C@H](CCCCN)NC(=O)[C@H](CO)NC(=O)[C@H](CC(C)C)NC(=O)[C@H](CC(=O)O)NC(=O)[C@H](CO)NC(=O)[C@@H](NC(=O)[C@H](Cc1ccccc1)NC(=O)[C@@H](NC(=O)CNC(=O)[C@H](CCC(N)=O)NC(=O)C1(NC(=O)[C@@H](N)Cc2c[nH]cn2)CCC1)[C@@H](C)O)[C@@H](C)O)C(=O)N[C@@H](CCC(=O)O)C(=O)N[C@@H](CO)C(=O)N[C@@H](CCCCN)C(=O)N[C@@H](CCCNC(=N)N)C(=O)N[C@@H](C)C(=O)N[C@@H](CCCNC(=N)N)C(=O)N[C@@H](CCC(=O)O)C(=O)N[C@@H](Cc1ccccc1)C(=O)N[C@H](C(=O)N[C@@H](CCC(N)=O)C(=O)N[C@@H](Cc1c[nH]c2ccccc12)C(=O)N[C@@H](CC(C)C)C(=O)N[C@@H](CC(C)C)C(=O)N[C@@H](CCCCNC(=O)CC[C@H](NC(=O)CC[C@H](NC(=O)[C@H](CO)NC(=O)[C@H](CCC(=O)O)NC(=O)[C@H](CO)NC(=O)CC[C@H](NC(=O)CC[C@H](NC(=O)CCCCCCCCCCCCCCCCC(=O)O)C(=O)O)C(=O)O)C(=O)O)C(=O)O)C(=O)N[C@H](C(N)=O)[C@@H](C)O)C(C)C [Example 68, N^ε28-[(4S)-4-carboxy-4-[[(4S)-4-carboxy-4-[[(2S)-2-[[(2S)-4-carboxy-2-[[(2S)-2-[[(4S)-4-carboxy-4-[[(4S)-4-carboxy-4-(17-carboxyheptadecanoylamino)butanoyl]amino]butanoyl]amino]-3-hydroxypropanoyl]amino]butanoyl]amino]-3-hydroxypropanoyl]amino]butanoyl]amino]butanoyl]-[Acb2,Leu10,Glu15,Lys17,Arg20,Glu21,Leu27,Lys28]-Glucagon amide] (H-H[Ac4c]QGTFTSDLSKYLESKRAREFVQWLLK([γGlu-γGlu-Ser-Glu-Ser-γGlu-γGlu-C18 diacid])T-NH2; N-terminus assumed)",7 pM
2,"CC(C)C[C@H](NC(=O)[C@H](Cc1ccc(O)cc1)NC(=O)[C@H](CCCCN)NC(=O)[C@H](CO)NC(=O)[C@H](CC(C)C)NC(=O)[C@H](CC(=O)O)NC(=O)[C@H](CO)NC(=O)[C@@H](NC(=O)[C@H](Cc1ccccc1)NC(=O)[C@@H](NC(=O)CNC(=O)[C@H](CCC(N)=O)NC(=O)C(C)(C)NC(=O)[C@@H](N)Cc1c[nH]cn1)[C@@H](C)O)[C@@H](C)O)C(=O)N[C@@H](CCC(=O)O)C(=O)N[C@@H](CO)C(=O)N[C@@H](CCCCN)C(=O)N[C@@H](CCCNC(=N)N)C(=O)N[C@@H](C)C(=O)N[C@@H](CCCNC(=N)N)C(=O)N[C@@H](CO)C(=O)N[C@@H](Cc1ccccc1)C(=O)N[C@H](C(=O)N[C@@H](CCC(N)=O)C(=O)N[C@@H](Cc1c[nH]c2ccccc12)C(=O)N[C@@H](CC(C)C)C(=O)N[C@@H](CC(C)C)C(=O)N[C@@H](CCCCNC(=O)CC[C@H](NC(=O)CC[C@H](NC(=O)[C@H](CO)NC(=O)[C@H](CCC(=O)O)NC(=O)[C@H](CO)NC(=O)CC[C@H](NC(=O)CC[C@H](NC(=O)CCCCCCCCCCCCCCCCC(=O)O)C(=O)O)C(=O)O)C(=O)O)C(=O)O)C(=O)N[C@H](C(N)=O)[C@@H](C)O)C(C)C [Example 69, N^ε28-[(4S)-4-carboxy-4-[[(4S)-4-carboxy-4-[[(2S)-2-[[(2S)-4-carboxy-2-[[(2S)-2-[[(4S)-4-carboxy-4-[[(4S)-4-carboxy-4-(17-carboxyheptadecanoylamino)butanoyl]amino]butanoyl]amino]-3-hydroxypropanoyl]amino]butanoyl]amino]-3-hydroxypropanoyl]amino]butanoyl]amino]butanoyl]-[Aib2,Leu10,Glu15,Lys17,Arg20,Ser21,Leu27,Lys28]-Glucagon amide] (H-H[Aib]QGTFTSDLSKYLESKRARSFVQWLLK([γGlu-γGlu-Ser-Glu-Ser-γGlu-γGlu-C18 diacid])T-NH2; N-terminus assumed)",7 pM

# Reference: patent publication US9474790B2, “Stable, protracted GLP-1/glucagon receptor co-agonists for medical use” (Novo Nordisk A/S, priority 2013, dated 2016)
